# Test results as given in article PMC8040252, “1,2,4-Oxadiazole-Bearing Pyrazoles as Metabolically Stable Modulators of Store-Operated Calcium Entry” (ACS Medicinal Chemistry Letters, 2021).
# Marks after values point to notes of the source that are not given here.
# Legend:
# [1] = system: calcium entry in resting cells; test: Intracellular Ca2+ in resting cells in the presence of extracellular Ca2+; type: cell-based, human; settings: 10 μM, extracellular Ca2+ present, 300 s of observation, compared to control
# Protocol: We also investigated whether 37 required the triggered opening of the Orai channel to elicit its effect. […] The same effect was also evident at 3 (118.2%) and 1 μM (116.7%) but was not detected at concentrations above 10. In particular, at 30 and 100 μM, 37 acts as weak SOCE inhibitor, with a percentage of residual activity of about 70%.
# [2] = system: Store-operated calcium entry (SOCE); test: SOCE in HEK cells, tBhQ store depletion and Ca2+ re-addition, Fura-2 calcium imaging; type: cell-based, human; settings: for percentage of SOCE activity: compared to control
# Protocol: With this approach, 24 oxadiazole-bearing pyrazoles were synthesized and tested in human embryonic kidney (HEK) cells for SOCE inhibition. […] After 600 s, Ca^2+ was added and intracellular levels were measured in fluorescence microscopy with the calcium dye Fura-2. […] For these compounds, the cell viability was therefore evaluated. An MTT assay was performed and the compounds that affected cell viability by more than 25% at 10 μM were discarded (23, 31, and 33). […] According to both activity and cytotoxicity, for the selected five compounds, the representative traces are depicted in Figure 3.
# Human embryonic kidney (Hek) cells were obtained from ATCC (Rockville, MD, USA) and were cultured in Dulbecco’s Modified Eagle’s Medium (DMEM; Sigma-Aldrich, Italy), supplemented with 10% heat-inactivated FBS (Gibco, Italy), L-glutamine […] (Sigma-Aldrich, Italy), 10 U/mL penicillin, and […] streptomycin (Sigma-Aldrich, Italy) at 37 °C, under a 5% CO2 humidified atmosphere. […]
# (KRB, 135 mM NaCl, 5 mM KCl, 0.4 mM KH2PO4, 1 mM MgSO4, 5.5 mM glucose, 20mM HEPES, pH 7.4) containing 2 mM CaCl2 (30 min, room temperature). After which, cells were washed and incubated with KRB for other 30 min to allow de-esterification of […]. To measure SOCE, cells were depleted of calcium in the endoplasmic reticulum with 2,5-t-butylhydroquinone (tBhQ, 50 […]
# For calcium imaging experiments, Hek cells were plated onto pre-treated poli-L-lysine (P4832, Sigma-Aldrich, Italy) glass coverslips of 24 mm in 6-well plates Cells were loaded with 5 µM of Fura-2 AM, 0.02% of Pluronic-127 (Life technologies, Italy) and 10 µM of sulfinpyrazone (Sigma-Aldrich, Italy) in KRB containing 2 mM CaCl2 for 30 min at RT. Cells were then washed once with KRB for 15 min for de-esterification of Fura-2 AM.
# Coverslips were mounted into the acquisition chamber and placed on the stage of a Leica DMI6000 epifluorescent microscope equipped with S Fluor ×40/1.3 objective. Fura-2 AM was excited by alternate 340 and 380 nm using a Polychrome IV monochromator (Till Photonics, Germany), and the probe emission light was filtered through 520/20 bandpass filter and collected by a cooled CCD camera (Hamamatsu, Japan). The fluorescence signals were acquired and processed using MetaFluor software (Molecular Device, Sunnyvale, CA, USA). To quantify the differences in the amplitudes of Ca2+ transients, the ratio values were normalized using the formula ΔF/F0. […]
# In calcium imaging experiments, data are presented as Mean +/- standard error (SEM) or Median and interquartile range (IQR). The normality of data distributions was assessed using the Shapiro−Wilk test. Nonparametric (Mann−Whitney U test and one-way) statistical analysis was used for comparisons of data. All statistical assessments were two-sided and a value of P <0.05 was considered statistically significant. Statistical analyses were performed using GraphPad Prism software (GraphPad Software, Inc., USA).
# [3] = In vitro hepatic metabolic stability in MLS9 fraction with NADPH; type: in vitro ADME, mouse; settings: after 1 h of incubation
# Protocol: The five selected inhibitors (22, 27, 29, 32, and 42) and the identified SOCE enhancer (37) were then evaluated for their in vitro hepatic metabolic stability. To this aim, the candidates were incubated in MLS9 fraction supplied with NADPH and the residual substrate was measured after 1 h. Under these conditions, the oxadiazole-bearing pyrazoles resulted overall metabolically stable, with only two compounds affording a residual substrate lower than 80% and the remaining molecules higher than 90% after incubation (Table 1 and Supporting Information). In contrast, Pyr3 and CIC-37, which suffered from hydrolysis of the ester function, provided a residual substrate of 43 and 74%, respectively (Table 1).[35] Similarly, the residual substrate of Synta66 in MLM is of 15%, due to an important hydrolysis of the amide group, absent in our class (Table 1).[39]
# In vitro metabolism and purity of lead compounds
# In vitro metabolism studies
# Mouse liver S9 (MLS9) (pooled male mouse CD-1, protein concentration: 20 mg/mL) were purchased from Corning B.V. Life Sciences (Amsterdam, The Netherlands) and used throughout this study. The standard incubation mixture (250 μL final volume) was carried out in a 50 mM TRIS (tris[hydroxymethyl]-aminomethane) + 150 mM KCl buffer (pH 7.4) containing 3.3 mM MgCl2, 1.3 mM β-NADP-Na 2, 3.3 mM glucose 6-phosphate, 0.4 Units/mL glucose 6-phosphate dehydrogenase (NADPH regenerating system), 5 μL of acetonitrile ([…]), and the substrate compounds at a concentration of 50 µM. After pre-equilibration of the mixture, an appropriate volume of MLS9 suspension was added to give a final protein concentration of 1.5 mg/mL. The mixture was shaken for 60 min at 37 °C. Each incubation was stopped by addition of 250 μL of ice-cold acetonitrile, vortexed, and centrifuged at 13000 rpm for 10 min. Control incubations were carried out without the presence of MLS9 suspension or cofactors or in absence of the substrate.
# LC-UV method for purity and metabolic stability data determination: a Shimadzu HPLC system (Shimadzu, Kyoto, Japan), consisting of two LC-10AD Vp module pumps, an SLC-10A Vp system controller, an SIL-10AD Vp autosampler, and a DGU-14-A on-line degasser were used for the analysis. The SPD-M10Avp photodiode array detector was used to detect the analytes. LC-Solution 1.24 software was used to process the chromatograms.
# • Column: Phenomenex Kinetex XB C18, 150 × 4.6 mm (5 µm d.p.) protected with a SecurityGuard® (Torrance, CA, USA).
# A: 0.2% formic acid in water;
# B: 0.2% formic acid in acetonitrile.
structure (smiles),measurement,setting,value
CCCCCC(=O)Nc1ccc(-n2ncc(-c3nc(C)no3)c2C(F)(F)F)cc1 [compound 37],calcium entry in resting cells,[1],did not elicit any significant calcium entry
same,percentage of SOCE activity,[2]; 1 μM,116.7%
same,percentage of SOCE activity,[2]; 3 μM,118.2%
same,area under the curve (AUC) of calcium entry,"[2]; 10 μM, vs control",significantly increased
same,peak amplitude of calcium entry,"[2]; 10 μM, vs control",significantly increased
same,slope of the Ca2+-rise,"[2]; 10 μM, vs control",without affecting
same,activity at 30 µM,"[2]; Homo sapiens, HEK293, 30 μM, read-out: percentage of residual activity (SOCE)",~70%
same,activity at 100 µM,"[2]; Homo sapiens, HEK293, 100 μM, read-out: percentage of residual activity (SOCE)",~70%
same,activity at 10 µM,"[2]; Homo sapiens, HEK293, compound 10 μM, tBhQ 50 μM, vs control, mean ± SEM of three experiments, read-out: % SOCE residual activity (10 μM)",146 ± 4.5%
same,MLS9 stability (residual substrate),[3],91% ^b
